“And” between values parts separate entries of the source, which are not always exact repeats. Equal entries are not always repeated. Records with an inconclusive call do not appear. The source made the active and inactive calls.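 Rule for the calls: active = fitted half-maximal concentration of signal decrease at or below twice the sample's top tested concentration; inconclusive = flat curve between -70 and -30 percent, or poor fit; inactive = flat within 30 percent, signal rise, or potency above limit.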
biological target: T. gondii ME49Luc in IFN-y HeLa, luciferase, 72 h; assay: inhibitors of Toxoplasma growth in IFN-γ-primed HeLa – cell-based, ME49Luc, luciferase, 72 h, dose response (AID 1259418)

Row | SMILES | AC50
1 | CC(C)C#Cc1ccc([C@@H]2[C@H](CO)N3C(=O)CN(S(=O)(=O)c4ccccc4)C[C@@H]23)cc1 | > 39 µM (inactive)
2 | CC(C)CC#Cc1ccc([C@@H]2[C@H](CO)N3C(=O)CN(C(=O)Nc4cc(F)ccc4F)C[C@@H]23)cc1 | 12.6 µM and 4.61 µM
3 | COc1ccc(-c2ccc([C@H]3[C@H]4CN(Cc5ccccc5)CC(=O)N4[C@H]3CO)cc2)cc1 | 21 µM
4 | Cc1ccn(CCNc2nccc(-c3c(C)nn(C)c3C)n2)n1 | 18.8 µM
5 | CCOc1ccc(-c2nc(CN3CCN(C(=O)Nc4cccc(Cl)c4)CC3)c(C)o2)cc1 | 17.1 µM
6 | COc1ccc(-c2nc(CN(c3cccc(OC)c3)S(=O)(=O)c3ccccc3)c(C)o2)cc1 | 9.75 µM
7 | C=CCN1CCC2(CC1)CC(NCc1ccc(C)s1)c1ccccc1O2 (configuration not stated) | 12.1 µM
8 | CCOc1ccc(N(Cc2nc(-c3ccc(OC)cc3)oc2C)S(=O)(=O)c2ccccc2)cc1 | 3.96 µM and 3.81 µM
9 | COc1ccc(-c2nc(N3CCN(C4CCCCC4)CC3)c3ccccc3n2)cc1 | 30.1 µM
10 | CN1C(=O)c2cc(NC(=O)Cc3cccs3)ccc2OC[C@@H]2O[C@H](CC(=O)NCC3CCCCC3)CC[C@@H]21 | > 39 µM (inactive)
11 | CC[C@H]1CN2CCC1C[C@@H]2[C@@H](O)c1ccnc2ccc(OC)cc12 (some centres not stated) | 2.25 µM
12 | CN(C)CCCNC(=O)c1cc(-c2cnc(-c3ccccc3)nc2)cn1C | 30.1 µM

Source: PubChem BioAssay AID1259418 (Broad Institute, 2018)
